In US20240059685A1, “PIEZO1 AGONISTS FOR THE PROMOTION OF BONE FORMATION” (BIOVENTURES, LLC, priority 2019, published 2024):
Entries after “also recorded” stand apart in the source; their conditions may differ.

Experiments:
Format in all cases: cell-based, murine
Piezo1 [1] = molecular target: T1, Piezo1 (Mus musculus, UniProt E2JF22); test: Activation of Piezo1 in MLO-Y4 cells, overall conclusion from gene expression and calcium influx
T1 construct: To identify Piezo1 stimulators, we treated MLO-Y4 cells with compounds; endogenous in cells; host or cells: MLO-Y4 (murine osteocyte-like cell line); control sh-Luc cells, with sh-Piezo1 knock-down cells as the specificity control
T1 sequence (E2JF22 whole entry): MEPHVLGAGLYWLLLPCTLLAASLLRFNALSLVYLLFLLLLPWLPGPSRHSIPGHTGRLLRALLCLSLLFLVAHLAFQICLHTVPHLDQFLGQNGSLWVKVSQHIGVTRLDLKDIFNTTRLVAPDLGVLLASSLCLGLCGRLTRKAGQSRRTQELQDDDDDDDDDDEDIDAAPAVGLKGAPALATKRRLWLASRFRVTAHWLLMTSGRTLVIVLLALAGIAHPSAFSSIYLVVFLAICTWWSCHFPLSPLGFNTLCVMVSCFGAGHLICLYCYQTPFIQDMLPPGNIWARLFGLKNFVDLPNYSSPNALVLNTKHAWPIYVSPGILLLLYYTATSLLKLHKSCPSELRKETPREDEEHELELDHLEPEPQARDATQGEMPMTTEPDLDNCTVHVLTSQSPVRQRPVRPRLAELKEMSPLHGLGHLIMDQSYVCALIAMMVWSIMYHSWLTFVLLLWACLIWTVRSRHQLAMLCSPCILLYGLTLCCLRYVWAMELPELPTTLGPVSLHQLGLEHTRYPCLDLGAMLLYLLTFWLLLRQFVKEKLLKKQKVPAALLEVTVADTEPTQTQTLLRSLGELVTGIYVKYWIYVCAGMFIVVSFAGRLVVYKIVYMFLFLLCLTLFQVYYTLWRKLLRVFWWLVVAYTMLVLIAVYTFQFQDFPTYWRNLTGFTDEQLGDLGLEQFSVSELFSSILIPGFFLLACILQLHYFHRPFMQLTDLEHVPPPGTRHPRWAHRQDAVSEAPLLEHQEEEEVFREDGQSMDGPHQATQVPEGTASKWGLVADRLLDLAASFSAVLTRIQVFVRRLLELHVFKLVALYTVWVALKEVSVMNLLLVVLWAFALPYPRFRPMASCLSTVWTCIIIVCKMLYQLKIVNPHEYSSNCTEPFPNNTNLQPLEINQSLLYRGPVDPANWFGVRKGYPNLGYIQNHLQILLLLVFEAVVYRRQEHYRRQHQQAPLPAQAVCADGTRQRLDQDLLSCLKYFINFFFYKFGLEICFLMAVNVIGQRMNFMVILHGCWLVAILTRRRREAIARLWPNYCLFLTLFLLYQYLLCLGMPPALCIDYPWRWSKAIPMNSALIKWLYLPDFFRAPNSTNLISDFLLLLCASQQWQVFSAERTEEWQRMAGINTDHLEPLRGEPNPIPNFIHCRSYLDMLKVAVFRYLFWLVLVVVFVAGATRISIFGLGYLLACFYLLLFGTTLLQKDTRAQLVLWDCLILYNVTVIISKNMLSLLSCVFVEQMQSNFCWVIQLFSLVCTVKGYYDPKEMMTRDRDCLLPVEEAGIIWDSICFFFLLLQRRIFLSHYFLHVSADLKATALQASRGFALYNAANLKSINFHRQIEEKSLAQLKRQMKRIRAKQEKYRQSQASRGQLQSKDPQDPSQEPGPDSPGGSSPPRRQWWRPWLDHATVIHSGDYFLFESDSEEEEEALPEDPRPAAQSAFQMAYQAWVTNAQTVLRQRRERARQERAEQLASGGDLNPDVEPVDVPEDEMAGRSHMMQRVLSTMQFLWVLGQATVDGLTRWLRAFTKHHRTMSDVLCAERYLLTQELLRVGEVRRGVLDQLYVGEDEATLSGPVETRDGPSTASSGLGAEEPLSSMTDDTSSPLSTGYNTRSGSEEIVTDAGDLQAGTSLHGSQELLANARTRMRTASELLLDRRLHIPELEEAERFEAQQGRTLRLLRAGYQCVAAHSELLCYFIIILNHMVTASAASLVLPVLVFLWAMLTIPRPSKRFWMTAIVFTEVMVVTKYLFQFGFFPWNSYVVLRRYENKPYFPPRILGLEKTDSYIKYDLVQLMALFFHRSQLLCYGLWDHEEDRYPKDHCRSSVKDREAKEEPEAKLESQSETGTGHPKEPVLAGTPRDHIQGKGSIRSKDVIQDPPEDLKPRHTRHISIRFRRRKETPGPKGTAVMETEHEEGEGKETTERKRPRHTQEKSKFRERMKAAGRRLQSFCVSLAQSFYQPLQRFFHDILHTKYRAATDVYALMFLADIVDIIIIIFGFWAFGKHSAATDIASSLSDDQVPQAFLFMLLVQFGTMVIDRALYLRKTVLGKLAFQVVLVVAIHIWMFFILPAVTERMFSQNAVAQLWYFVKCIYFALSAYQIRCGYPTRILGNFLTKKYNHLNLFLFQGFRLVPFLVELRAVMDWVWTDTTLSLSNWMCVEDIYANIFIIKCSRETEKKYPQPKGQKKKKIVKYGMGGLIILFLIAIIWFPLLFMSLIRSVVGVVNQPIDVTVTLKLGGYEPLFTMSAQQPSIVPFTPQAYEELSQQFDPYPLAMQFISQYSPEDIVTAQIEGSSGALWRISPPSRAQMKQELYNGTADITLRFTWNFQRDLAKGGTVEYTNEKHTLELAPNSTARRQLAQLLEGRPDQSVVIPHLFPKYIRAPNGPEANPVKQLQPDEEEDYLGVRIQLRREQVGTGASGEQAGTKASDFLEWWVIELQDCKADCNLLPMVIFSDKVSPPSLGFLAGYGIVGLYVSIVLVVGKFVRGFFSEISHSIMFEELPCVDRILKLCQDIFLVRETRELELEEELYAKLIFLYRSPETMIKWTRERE
Method: (§1) To identify Piezo1 stimulators, we treated MLO-Y4 cells with compounds Yoda1, YW-3-159, W-3-163, W-3-168-1, W-3-168-2, W-3-170, W-3-173-1, W-3-173-2, and YW-3-174. Gene expression of Wnt1, Ptgs2, and Tnfrsf11b was measured to determine the activation of Piezo1. In addition, intracellular calcium concentration was measured to determine the activity of Piezo1 channel. […] Yoda1 was used as a positive control in all experiments.

Piezo1 [2] = molecular target: T1, Piezo1; test: qPCR gene expression of Wnt1, Ptgs2 and Tnfrsf11b in MLO-Y4 cells; settings: MLO-Y4 cells, 10 μM, 2 hours
Method: Cell cultures. MLO-Y4 cells were cultured in α-MEM supplemented with 5% FBS, 5% BCS, and 1% penicillin/streptomycin/glutamine. Fifteen dynes/cm^2 oscillatory fluid shear stress was applied on MLO-Y4 cells at 1 Hz for 2 hours using an IBDI pump system (IBIDI, German). For Yoda1 treatment, cells were cultured in the presence of 10 μM Yoda1 (Sigma, St. Louis, MO) or DMSO for 2 hours. Immediately after the treatments, we isolated RNA from cells using RNeasy mini kit (Qiagen, German) for qPCR or RNA-seq analysis. To silence Piezo1, we generated Piezo1 shRNA expression plasmid using the following oligonucleotides in the pLKO.1-TRC cloning vector (Addgene Plasmid #10878, a gift from David Root): forward oligo: 5′-CCGGTC-[…]-3′ (SEQ ID NO: 1); reverse oligo: 5′-[…]-CGA-3′ (SEQ ID NO: 2) (Zhang et al., 2017). Yap1 shRNA (TRCN0000238432) and Taz shRNA (TRCN0000095951) were purchased from Sigma (St. Louis, MO). A shRNA against firefly luciferase was used as a control (Sigma, St. Louis, MO). For virus production, HEK293T cells were cultured in a 6-well culture plate and co-transfected with a total 3 μg of lentiviral shRNA vector, pMD2G (Addgene plasmid #12259, a gift from Didier Trono), and psPAX2 (Addgene plasmid #12260, a gift from Didier Trono) at the ratio of 2:0.9:0.4 using TransIT-LT1 transfection reagent (Mirus, Madison, WI). Culture media was changed 12 hours after transfection and viral supernatants were collected 48 hours after media change. Viral supernatants were filtered through a 0.45 μm filter and used immediately to transduce cells cultured in a 10 cm dish. Cells were then subjected to selection with G418 (100 μg/ml) or puromycin (25 μg/ml) for 5 days before treatment. To overexpress Piezo1 in MLO-Y4 cells, we transfected mPiezo1-IRES-eGFP (Addgene plasmid #80925, a gift from Ardem Patapoutian) into MLO-Y4 cells using TransIT-LT1 transfection reagent (Mirus, Madison, WI) and then treated these cells with 15 dynes/cm^2 oscillatory fluid shear stress at 1 Hz for 2 hours. Plasmids for expression of Cas9 and sgRNAs for knocking out Piezo1 in UAMS-32 cells were prepared by inserting oligonucleotides encoding the desired sgRNA sequence into the pX458 vector using the protocol recommended by the Zhang laboratory (Cong et al., 2013). Plasmids expressing Cas9 and Piezo1 sgRNAs were transfected into UAMS-32 cells using TransIT-LT1 transfection reagent (Mirus, Madison, WI). Cells were sorted into 96-well plates for single cell cloning 48 hours after transfection. Single cell colonies were then screened for homozygous deletion using the following primers: Forward: 5′-[…]-3′ (SEQ ID NO: 5), Reverse: 5′-[…]-3′ (SEQ ID NO: 6). All homozygous mutant cell colonies were then pooled together for further analysis. Cas9 transfected cells were used as a control. All in vitro cell culture experiments were performed three times with three technical replicates.
Quantitative PCR. Organs and whole bones were harvested from animals, removed of soft tissues, and stored immediately in liquid nitrogen. We prepared osteocyte-enriched bone by removing the ends of femurs and tibias and then flushing the bone marrow with PBS. We then scraped the bone surface with a scalpel and froze them in liquid nitrogen for later RNA isolation, or decalcified them for genomic DNA isolation. We isolated total RNA using TRIzol (Life technologies, NY), according to the manufacturer's instructions and prepared cDNA using High Capacity first strand cDNA synthesis kit (Life Technologies). We performed quantitative RT-PCR using the following Taqman assays from Applied Biosystems: Piezo1 (Mm01241549_m1); Piezo2 (Mm01265861_m1); Ptgs2 (Mm00478374_m1); Cyr61 (Mm00487498_m1); Wnt1 (Mm01300-555_g1); Yap1 (Mm011432-63_m1); Taz (Mm01289583_m1); Tnfsf11 Mm00441906_m1; Tnfrsf11b (Mm00435452_m1); Sost (Mm00470479_m1); and ribosomal protein S2 (Mrps2) (Mm00475529_m1). We calculated relative mRNA amounts using the ΔCt method (Livak and Schmittgen, 2001). […]

Piezo1 [3] = molecular target: T1, Piezo1; test: Intracellular calcium concentration (Fluo-8) in control or Piezo1 knock-down MLO-Y4 cells; settings: Piezo1 knock-down (sh-Piezo1) MLO-Y4 cells, 10 μM
Method: Calcium concentration measurement. For intracellular calcium concentration measurement under fluid flow condition, 1×10^5 MLO-Y4 cells were seeded in a μ-Slide I Luer (0.4 mm) fluid chamber slide (MIDI, Germany) overnight. One hour before initiating fluid flow, the culture medium was removed and 100 μl Hank's Buffer with Hepes (HHBS) containing 4μM Fluo-8 (Abcam, Cambridge, MA) was added to the culture, as described by the manufacturer. The cells were then cultured at 37° C. for 30 minutes. After additional incubation at room temperature for 30 minutes, the chamber slide was placed under a confocal microscope in order to record the intensity of fluorescence of MLO-Y4 cells. Fluorescence was recorded for 3 minutes before starting fluid flow using HHBS and then recorded for another 10 minutes. The increase of intracellular concentration was calculated by subtracting the initial mean fluorescence. For measuring intracellular calcium concentration in cells with Yoda1 treatment, we cultured 4,000 MLO-Y4 cells per well in a 96-well-plate. We preloaded the cells with Fluo-8 as described by the manufacturer and read the intensity of the fluorescence using a Victor X3 multi-label plate reader (Perkin Elmer, Waltham, MA) immediately after the treatment. We measured the fluorescence for 5 minutes at an interval of 20 seconds. The percentage of increase in intracellular calcium concentration was calculated as (Fx-F0)/F0.
as §1

- activity in activating Piezo1 compared to Yoda1 (Piezo1 [1]; MLO-Y4 cells in vitro): comparable or superior activity
- Ptgs2 expression compared with vehicle (Piezo1 [2]): higher Ptgs2 expression
- Tnfrsf11b expression compared with vehicle (Piezo1 [2]): higher Tnfrsf11b expression
- Wnt1 expression compared with vehicle (Piezo1 [2]): higher Wnt1 expression
SMILES: Clc1ccnc(Cl)c1CSc1nnc(-c2cnccn2)s1 [YW-3-159]
- Piezo1 agonist activity (conclusion in words) (Piezo1 [1]; MLO-Y4 cells): potent agonists for Piezo1; also recorded: potent and specific Piezo1 agonists
- calcium influx / increase of intracellular calcium in Piezo1 knock-down cells (Piezo1 [3]): completely blocked; also recorded: loss of their ability to stimulate calcium influx
